Reference: patent US20090005373A1, “SUBSTITUTED SULFONAMIDO-MACROCYCLES AS TIE2 INHIBITORS AND SALTS THEREOF, PHARMACEUTICAL COMPOSITIONS COMPRISING SAME, METHODS OF PREPARING SAME AND USES OF SAME” (priority 2006, published 2009)

What was measured:
Type in all cases: biochemical
[1] = target: T1, Tie-2 (Homo sapiens, UniProt Q02763); experiment: Tie-2-Kinase HTRF-Assay without Kinase Preactivation (assay 2); details: 10 μM ATP, no kinase preactivation
T1 construct: A recombinant fusion protein of GST and the intracellular domains of Tie-2, expressed in insect cells (Hi-5); GST; made in house; host or cells: Hi-5 insect cells
T1 sequence (Q02763 770-1124 limits assumed): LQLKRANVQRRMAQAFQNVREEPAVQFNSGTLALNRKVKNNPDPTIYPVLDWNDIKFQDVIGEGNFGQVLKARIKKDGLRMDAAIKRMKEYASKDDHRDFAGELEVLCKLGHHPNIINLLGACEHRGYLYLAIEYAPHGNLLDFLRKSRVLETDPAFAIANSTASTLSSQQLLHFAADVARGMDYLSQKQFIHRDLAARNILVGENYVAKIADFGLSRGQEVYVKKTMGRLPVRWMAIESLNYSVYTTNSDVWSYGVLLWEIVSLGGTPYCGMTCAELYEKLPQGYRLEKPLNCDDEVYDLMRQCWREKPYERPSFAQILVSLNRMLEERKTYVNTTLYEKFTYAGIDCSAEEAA
Text: Tie2-inhibitory activity of compounds of the present invention was quantified employing two Tie2 HTRF assay as described in the following paragraphs.
A recombinant fusion protein of GST and the intracellular domains of Tie-2, expressed in insect cells (Hi-5) and purified by Glutathion-Sepharose affinity chromatography was used as kinase. Alternatively, commercially available GST-Tie2-fusion protein (Upstate Biotechnology, Dundee, Scotland) can be used As substrate for the kinase reaction the biotinylated peptide biotin-Ahx-EPKDDAYPLYSDFG (C-terminus in amid form) was used which can be purchased e.g. from the company Biosynthan GmbH (Berlin-Buch, Germany). Detection of phosphorylated product is achieved specifically by a trimeric detection complex consisting of the phosphorylated substrate, streptavidin-XLent (SA-XLent) which binds to biotin, and Europium Cryptate-labeled anti-phosphotyrosine antibody PT66 which binds to phosphorylated tyrosine.
Tie-2 (3.5 ng/measurement point) was incubated for 60 min at 22° C. in the presence of 10 μM adenosine-tri-phosphate (ATP) and 1 μM substrate peptide (biotin-Ahx-EPKDDAYPLYSDFG-NH2) with different concentrations of test compounds (0 μM and concentrations in the range 0.001-20 μM) in 5 μl assay buffer [50 mM Hepes/NaOH pH 7, 10 mM MgCl2, 0.5 mM MnCl2, 1.0 mM dithiothreitol, 0.01% NP40, protease inhibitor mixture (“Complete w/o EDTA” from Roche, 1 tablet per 2.5 ml), 1% (v/v) dimethylsulfoxide]. The reaction was stopped by the addition of 5 μl of an aqueous buffer (25 mM Hepes/NaOH pH 7.5, 0.28% (w/v) bovine serum albumin) containing EDTA (90 mM) and the HTRF (Homogeneous Time Resolved Fluorescence) detection reagents streptavidine-XLent (0.2 μM, from Cis Biointernational, Marcoule, France) and PT66-Eu-Chelate (0.3 ng/μl; a europium-chelate labelled anti-phospho-tyrosine antibody from Perkin Elmer).
(§1) The resulting mixture was incubated 1 h at 22° C. to allow the binding of the biotinylated phosphorylated peptide to the streptavidine-XLent and the PT66-Eu-Chelate. Subsequently the amount of phosphorylated substrate peptide was evaluated by measurement of the resonance energy transfer from the PT66-Eu-Chelate to the streptavidine-XLent. Therefore, the fluorescence emissions at 620 nm and 665 nm after excitation at 350 nm was measured in a HTRF reader, e.g. a Rubystar (BMG Labtechnologies, Offenburg, Germany) or a Viewlux (Perkin-Elmer). The ratio of the emissions at 665 nm and at […] was taken as the measure for the amount of phosphorylated substrate peptide. The data were normalised (enzyme reaction without inhibitor=0% inhibition, all other assay components but no enzyme=100% inhibition) and IC50 values were calculated by a 4 parameter fit using an inhouse software.

[2] = target: T2, human KDR (Homo sapiens, UniProt P35968); experiment: KDR Kinase Assay, HTRF (assay 5); details: 10 μM ATP
T2 construct: GST-tagged recombinant kinase domain of the human KDR; GST; host or cells: SF-9 insect cells
T2 sequence (P35968 834-1162 limits assumed): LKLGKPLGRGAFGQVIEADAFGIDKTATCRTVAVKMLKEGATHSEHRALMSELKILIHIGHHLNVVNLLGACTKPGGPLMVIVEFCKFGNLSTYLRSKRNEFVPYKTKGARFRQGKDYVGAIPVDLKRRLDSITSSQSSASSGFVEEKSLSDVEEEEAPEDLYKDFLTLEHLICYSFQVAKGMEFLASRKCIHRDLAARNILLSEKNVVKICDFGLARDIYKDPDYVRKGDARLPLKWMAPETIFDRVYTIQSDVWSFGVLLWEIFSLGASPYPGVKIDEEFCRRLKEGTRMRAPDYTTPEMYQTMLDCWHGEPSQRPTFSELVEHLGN
Protocol: Assay 5: KDR Kinase Assay
KDR inhibitory activity of compounds of the present invention was quantified employing the KDR HTRF assay as described in the following paragraphs.
GST-tagged recombinant kinase domain of the human KDR expressed in SF-9 cells was used as kinase. As substrate for the kinase reaction the biotinylated peptide biotin-Ahx-DFGLARDMYDKEYYSVG (C-terminus in acid form) was used which can be purchased e.g. form the company Biosynthan GmbH (Berlin-Buch, Germany). KDR was incubated for 45 min at 22° C. in the presence of different concentrations of test compounds in 5 μl assay buffer [50 mM Hepes/NaOH pH 7.0, 25 mM MgCl2, 5 mM MnCl2, 1.0 mM dithiothreitol, 0.1 mM sodium ortho-vanadate, 10 μM adenosine-tri-phosphate (ATP), 0.5 μM substrate, 0.001% (v/v) Nonidet-P40 (Sigma), 1% (v/v) dimethylsulfoxide]. The concentration of KDR was adjusted depending of the activity of the enzyme lot and was chosen appropriate to have the assay in the linear range. The reaction was stopped by the addition of 5 μl of a solution of HTRF detection reagents (0.1 μM streptavidine-XLent and 2 nM PT66-Eu-Chelate, an europium-chelate labelled anti-phospho-tyrosine antibody from Perkin Elmer) in an aqueous EDTA-solution (125 mM EDTA, 0.2% (w/v) bovine serum albumin in 50 mM HEPES/NaOH pH 7.0).
as §1, with “substrate” for “substrate peptide”, “substrate.” for “substrate peptide.”

[3] = target: T3, CDK2/CycE (Homo sapiens, UniProt P24941); experiment: CDK2 HTRF Assay (assay 4); details: pIC50 = −log IC50 in molar concentration; 10 μM ATP
T3 construct: GST; purchased ProQinase GmbH (Freiburg, Germany); host or cells: Sf9 insect cells
Text: CDK2/CycE—inhibitory activity of compounds of the present invention was quantified employing the CDK2/CycE HTRF assay as described in the following paragraphs.
Recombinant fusion proteins of GST and human CDK2 and of GST and human CycE, expressed in insect cells (Sf9) and purified by Glutathion-Sepharose affinity chromatography, were purchase from ProQinase GmbH (Freiburg, Germany). As substrate for the kinase reaction biotinylated peptide biotin-Ttds-YISPLKSPYKISEG (C-terminus in amid form) was used which can be purchased e.g. form the company JERINI peptide technologies (Berlin, Germany).
CDK2/CycE was incubated for 60 min at 22° C. in the presence of different concentrations of test compounds in 5 μl assay buffer [50 mM Tris/HCl pH […], 1.0 mM dithiothreitol, 0.1 mM sodium ortho-vanadate, 10 μM adenosine-tri-phosphate (ATP), 0.75 μM substrate, 0.01% (v/v) Nonidet-P40 (Sigma), 1% (v/v) dimethylsulfoxide]. The concentration of CDK2/CycE was adjusted depending of the activity of the enzyme lot and was chosen appropriate to have the assay in the linear range, typical concentrations were in the range of 1 ng/ml. The reaction was stopped by the addition of 5 μl of a solution of HTRF detection reagents (0.2 μM streptavidine-XLent and 3.4 nM Phospho-(Ser) CDKs Substrate Antibody [product #2324B, Cell Signalling Technology, Danvers, Mass., USA} and 4 nM Prot-A-EuK [Protein A labeled with Europium Cryptate from Cis biointernational, France, product no. 61PRAKLB]) in an aqueous EDTA-solution (100 mM EDTA, 800 mM KF, 0.2% (w/v) bovine serum albumin in 100 mM HEPES/NaOH pH 7.0).

[4] = target: T4, Plk1 (Homo sapiens, UniProt P53350); experiment: Plk1 Inhibition Assay, SPA (assay 6); details: ATP 0.5 μM
T4 construct: N-terminally 6His-tagged full length Plk1; 6His (N); made in house
T4 sequence (P53350 whole entry): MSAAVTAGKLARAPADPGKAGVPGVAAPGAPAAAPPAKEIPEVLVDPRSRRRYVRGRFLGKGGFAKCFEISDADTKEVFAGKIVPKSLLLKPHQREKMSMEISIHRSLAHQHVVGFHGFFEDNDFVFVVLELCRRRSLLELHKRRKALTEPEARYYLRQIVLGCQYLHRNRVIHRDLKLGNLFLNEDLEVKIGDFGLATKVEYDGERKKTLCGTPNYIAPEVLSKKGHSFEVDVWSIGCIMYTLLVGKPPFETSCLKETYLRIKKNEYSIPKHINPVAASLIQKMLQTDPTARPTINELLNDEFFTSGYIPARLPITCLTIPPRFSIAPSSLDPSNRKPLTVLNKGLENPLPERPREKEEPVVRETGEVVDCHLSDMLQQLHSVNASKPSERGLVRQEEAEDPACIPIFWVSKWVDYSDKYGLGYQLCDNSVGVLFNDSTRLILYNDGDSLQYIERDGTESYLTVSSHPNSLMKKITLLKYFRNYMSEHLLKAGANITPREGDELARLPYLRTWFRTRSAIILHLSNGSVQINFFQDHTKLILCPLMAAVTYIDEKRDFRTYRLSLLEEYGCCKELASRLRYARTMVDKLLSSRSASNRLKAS
Text: Assay 6: Plk1 Inhibition Assay
Plk1 phosphorylates serine/threonine residues of the biotinylated substrate bovine α-casein in the presence of [γ-^33P]ATP. Detection of the radiolabeled phosphorylated product is achieved by binding to streptavidine-coated SPA beads. The biotin moieties of biotinylated casein bind with high affinity to the streptavidine. The radiolabeled biotinylated casein produced by the Plk1 kinase reaction is able to generate a chemoluminescent signal when strepatavidine-mediated binding occurs to the scintillant-containing surface of the beads due to the close proximity of the radiolabel and the scintillant. […] The signals obtained are therefore indicative of the Plk1 kinase activity. Measurement is performed in a Perkin-Elmer TopCount instrument.
Enzyme: Purified human recombinant PLK1 [N-terminally 6His-tagged full length Plk1], prepared in house, conc.: 0.4 μg/μl Substrate: biotinylated bovine α-casein. Unbiotinylated casein obtained from Sigma was biotinylated by standard procedures using N-hydroxysuccinimide (NHS) ester of biotin. SPA-beads: PVT streptavidin SPA Beads, Amersham (# RPNQ0007) Reference compound: Wortmannin Assay plates: 384-well plates, small volume, white, Greiner (#784075) Buffer Materials Hepes: Sigma (# H-4034), MnCl2: Sigma (# M-1787), MgCl2: Sigma [# M-1028], NaCl: Merck [#1.06404.100], DTT: Biomol (#04010), NP40: Fluka (#74385), Complete EDTA-free: Roche [#1873580], ATP: Amersham (#27-2056), 33P-gamma-ATP: Perkin Elmer (Easytides # NEG/602H), EDTA: Sigma (# E-7889), PBS: Gibco (#14190-094), ATP for stopping solution: Sigma #(A-7699), DMSO: Merck [#8.02912.1000] Sealing tape: Greiner (#676080) Reader: TopCount instrument (PerkinElmer)
Assay buffer: 2.5 mM MnCl2, 5 mM MgCl2, 120 mM NaCl, 1 mM DTT, 50 mM Hepes pH 7.0, 0.01% NP40, 1× Complete (protease inhibitor cocktail) Enzyme working solution: 2.86 ng/μl PLK1 in assay buffer Substrate working solution: 1 μM ATP, 1.4 μM biotinylated a-Casein, 2.0 nCi/μl in assay buffer Stop/Detection solution: 50 μM ATP, 20 mM EDTA, 5 μg/μl beads in PBS 3. Assay protocol for small volume screen (all steps at 20° C., pipetted with CyBi-Well pipettor) • 1. 0.75 μl Compound in 30% or 100% DMSO • 2. addition of 3.5 μl Enzyme working solution • 3. addition of 3.5 μl Substrate working solution incubation 180 min • 4. addition of 10 μl Stop/Detection solution • 5. sealing of the plates, incubation 30 min, 10 min centrifugation at 1500 rpm • 6. Measurement in TopCount reader (60 sec/well)
Final concentrations, calculated for 7 μl reaction volume: PLK1 10 ng/well; a-Casein 0.7 μM; ATP 0.5 μM; gamma-33P-ATP 7 nCi/well, 2.5 mM MnCl2, 5 mM MgCl2, 120 mM NaCl, 1 mM DTT, 50 mM Hepes pH 7.0, 0.01% NP40, 1× Complete, 3% or 10% DMSO
The data were normalised (enzyme reaction without inhibitor=0% inhibition, enzyme reaction in the presence of 3.0 E-06 M wortmannin=100% inhibition) and IC50 values were calculated by a 4-parameter fit using an in house software.

IC50 [1]	IC50 [2]	IC50 [3]	IC50 [4]	Structure (SMILES)
≤ 0.1 µM	≤ 0.1 µM	> 10 µM	> 10 µM	O=C(NCC#Cc1cnc2nc1NCCCNS(=O)(=O)c1cccc(c1)N2)Nc1cccc(C(F)(F)F)c1 [Example 4, 1-[3-(13,13-Dioxo-13λ^6-thia-2,4,8,12,19-pentaaza-tricyclo[12.3.1.1^3,7]-nonadeca-1(18),3(19),4,6,14,16-hexaen-6-yl)-prop-2-ynyl]-3-(3-trifluoromethyl-phenyl)-urea]
≤ 0.1 µM	0.1 to 1 µM	> 10 µM	> 10 µM	O=C(NCC#Cc1cnc2nc1NCCCNS(=O)(=O)c1cccc(c1)N2)NCc1ccccc1 [Example 5, 1-Benzyl-3-[3-(13,13-dioxo-13λ^6-thia-2,4,8,12,19-pentaaza-tricyclo[12.3.1.1^3,7]-nonadeca-1(18),3(19),4,6,14,16-hexaen-6-yl)-prop-2-ynyl]-urea]
0.1 to 1 µM	≤ 0.1 µM	1 to 10 µM	> 10 µM	O=C(NCCC#Cc1cnc2nc1NCCCNS(=O)(=O)c1cccc(c1)N2)Nc1ccccc1 [Example 6, 1-[4-(13,13-Dioxo-13λ^6-thia-2,4,8,12,19-pentaaza-tricyclo[12.3.1.1^3,7]-nonadeca-1(18),3(19),4,6,14,16-hexaen-6-yl)-but-3-ynyl]-3-phenyl-urea]
0.1 to 1 µM	≤ 0.1 µM	1 to 10 µM	> 10 µM	O=S1(=O)NCCCNc2nc(ncc2C#CCNS(=O)(=O)c2cccc(Cl)c2Cl)Nc2cccc1c2 [Example 8, 2,3-Dichloro-N-[3-(13,13-dioxo-13λ^6-thia-2,4,8,12,19-pentaaza-tricyclo[12.3.1.1^3,7]-nonadeca-1(18),3(19),4,6,14,16-hexaen-6-yl)-prop-2-ynyl]-benzenesulfonamide]
≤ 0.1 µM	≤ 0.1 µM	> 10 µM	> 10 µM	Cc1ccc(F)c(S(=O)(=O)NCCC#Cc2cnc3nc2NCCCNS(=O)(=O)c2cccc(c2)N3)c1 [Example 13, N-[4-(13,13-Dioxo-13λ^6-thia-2,4,8,12,19-pentaaza-tricyclo[12.3.1.1^3,7]-nonadeca-1(18),3(19),4,6,14,16-hexaen-6-yl)-but-3-ynyl]-2-fluoro-5-methyl-benzene-sulfonamide]
